Results taken from patent publication US12319655B2, “RAF kinase inhibitors and methods of use thereof” (Deciphera Pharmaceuticals, LLC, priority 2021, dated 2025).
Where two headings read alike, the source gives them in different places.

Tests used:
[1] = molecular target: A-Raf kinase (SEQ. ID No: 1) (Homo sapiens (Human), UniProt P10398, Y301D/Y302D); experiment: Biochemical Assay for A-Raf (1); conditions: Table J
How it was run: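 A-Raf Y301D/Y302D at 5.55 nM phosphorylates 30.1 nM MEK with 1 mM ATP in pH 7.5 Tris buffer, 1% DMSO. Activity was read continuously as NADH oxidation at 340 nm in a pyruvate kinase/lactate dehydrogenase coupled system for 6 h at 30 °C. Rates from 4–5 h were converted to percent inhibition, and IC50 came from a four-parameter fit.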

[2] = molecular target: B-Raf (V600E) (SEQ. ID NO: 4) kinase (Homo sapiens (Human), UniProt P15056, V600E); experiment: Biochemical Assay for B-Raf (V600E) (1); conditions: Table J, BRAF V600E
How it was run: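 Coupled pyruvate kinase/lactate dehydrogenase assay: 0.03 nM B-Raf V600E, 30.1 nM MEK, 1 mM ATP, pH 7.5 Tris/MgCl2 buffer, 1% DMSO. NADH oxidation followed at 340 nm for 6 h at 30 °C; rate from 3–4 h converted to percent inhibition, IC50 by four-parameter fit.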

A375 cells = experiment: A375 Cell Proliferation Assay (1); type: cell-based; conditions: Homo sapiens, A-375
How it was run: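 Resazurin fluorescence (excitation 540 nm, emission 600 nm, after a further 5-6 h) gave IC50s from triplicate compound dilution series.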

H2405 cells = experiment: H2405 Cell Proliferation Assay (1); type: cell-based; conditions: Homo sapiens, NCI-H2405
How it was run: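 Viability was read by resazurin reduction (ex 540 nm, em 600 nm; 5-6 h with 40 μL of 440 μM stock) after 67-72 h compound exposure at 37 °C.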

[3] = biochemical assay (1), read-out: ARAF (1)
[4] = biochemical assay (1), read-out: BRAF VE (1)
[5] = assay version (1), read-out: ARAF (1) IC50
[6] = assay version (1), read-out: BRAF VE (1) IC50

Sequence of A-Raf kinase (SEQ. ID No: 1) (P10398 other isoform, or with tags, fused parts or gaps Y301D (already in the parent)/Y302D (already in the parent)): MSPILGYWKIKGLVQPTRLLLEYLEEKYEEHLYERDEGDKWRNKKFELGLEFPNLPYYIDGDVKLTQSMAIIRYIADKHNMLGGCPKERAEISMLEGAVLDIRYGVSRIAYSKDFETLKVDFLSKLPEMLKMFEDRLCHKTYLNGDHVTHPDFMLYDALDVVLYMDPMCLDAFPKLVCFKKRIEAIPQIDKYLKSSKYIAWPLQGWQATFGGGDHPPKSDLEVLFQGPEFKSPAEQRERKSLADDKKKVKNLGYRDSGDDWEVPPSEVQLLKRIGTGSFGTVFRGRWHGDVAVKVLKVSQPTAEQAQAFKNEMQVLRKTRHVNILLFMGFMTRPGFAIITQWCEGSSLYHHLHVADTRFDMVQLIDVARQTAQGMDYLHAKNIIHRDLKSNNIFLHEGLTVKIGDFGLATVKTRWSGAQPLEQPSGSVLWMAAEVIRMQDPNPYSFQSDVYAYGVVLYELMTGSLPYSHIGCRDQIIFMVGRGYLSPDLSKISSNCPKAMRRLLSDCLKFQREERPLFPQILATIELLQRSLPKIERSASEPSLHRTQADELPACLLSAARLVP
Sequence of B-Raf (V600E) (SEQ. ID NO: 4) kinase (P15056 416-766 V600E): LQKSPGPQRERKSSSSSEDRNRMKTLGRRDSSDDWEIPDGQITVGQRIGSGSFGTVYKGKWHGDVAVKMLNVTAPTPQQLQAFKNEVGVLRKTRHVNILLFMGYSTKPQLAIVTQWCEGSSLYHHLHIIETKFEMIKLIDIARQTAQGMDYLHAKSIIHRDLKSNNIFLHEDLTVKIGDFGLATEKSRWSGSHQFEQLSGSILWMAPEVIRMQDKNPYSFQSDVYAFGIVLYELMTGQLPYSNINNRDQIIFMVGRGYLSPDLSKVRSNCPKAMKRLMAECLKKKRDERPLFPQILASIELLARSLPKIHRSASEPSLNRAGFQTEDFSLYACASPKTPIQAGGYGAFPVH

IC50 [1, 3] [µM] | IC50 [2, 4] [µM] | IC50 (A375 cells) [µM] | IC50 (H2405 cells) [µM] | IC50 [1, 5] [µM] | IC50 [2, 6] [µM] | Compound
1 to 10 | ≤ 0.1 | 0.1 to 0.5 | 0.1 to 0.5 | – | – | Cc1ccc(NC(=O)c2ccnc(C(C)(C)F)c2)cc1-c1cncc(-c2ccnc(C(N)=O)c2)c1 [Example 380]
1 to 10 | ≤ 0.1 | 0.1 to 0.5 | 0.1 to 0.5 | – | – | Cc1ccc(NC(=O)c2cc(C3CC3)n(C)n2)cc1-c1cc(-c2ccnc(NC(=O)C3CC3)c2)cnn1 [Example 377]
1 to 10 | ≤ 0.1 | ≤ 0.1 | 0.1 to 0.5 | – | – | CNC(=O)c1cc(-c2ccnc(-c3cc(NC(=O)c4ccnc(C(C)(C)C#N)c4)ccc3C)c2)ccn1 [Example 376]
1 to 10 | ≤ 0.1 | 0.1 to 0.5 | 0.5 to 1 | – | – | COC(=O)Nc1cc(-c2cc(-c3cc(NC(=O)c4ccnc(C(C)(C)F)c4)c(F)cc3C)cc(C)n2)ccn1 [Example 386]
1 to 10 | ≤ 0.1 | 0.1 to 0.5 | 0.5 to 1 | – | – | COC(=O)Nc1cc(-c2cccc(-c3cc(NC(=O)c4ccnc(C(C)(C)F)c4)cnc3C)c2)ccn1 [Example 402]
1 to 10 | 0.1 to 0.5 | 1 to 10 | 1 to 10 | – | – | Cc1ccc(NC(=O)[C@H]2CCO[C@H](C(C)C)C2)cc1-c1cc(-c2ccnc(NC(=O)C3CC3)c2)cnn1 [Example 389]
1 to 10 | ≤ 0.1 | ≤ 0.1 | ≤ 0.1 | – | – | Cc1ccc(NC(=O)c2ccnc(C(F)(F)F)c2)cc1-c1cncc(-c2cc(NC(=O)C3CC3)ncn2)c1 [Example 397]
1 to 10 | 0.1 to 0.5 | 1 to 10 | 1 to 10 | – | – | Cc1ccc(NC(=O)[C@H]2CCO[C@@H](C(C)C)C2)cc1-c1cc(-c2ccnc(NC(=O)C3CC3)c2)cnn1 [Example 388]
– | – | 1 to 10 | 0.1 to 0.5 | 1 to 10 | ≤ 0.1 | CNC(=O)c1cc(-c2cc(-c3cc(NC(=O)c4ccnc(C(F)(F)F)c4)ccc3C)ncn2)ccn1 [Example 85]
1 to 10 | ≤ 0.1 | 0.1 to 0.5 | 0.1 to 0.5 | – | – | CNC(=O)c1cc(-c2cncc(-c3cc(NC(=O)c4ccnc(C5(C#N)CC5)c4)ccc3C)c2)ncn1 [Example 393]
1 to 10 | 1 to 10 | 1 to 10 | 1 to 10 | – | – | CNC(=O)c1cc(-c2cnnc(-c3cc(NC(=O)CCC4(F)CC4)cnc3C)c2)ccn1 [Example 374]
– | – | 0.1 to 0.5 | 0.5 to 1 | 1 to 10 | ≤ 0.1 | Cc1ccc(NC(=O)c2ccnc(C(C)(C)C#N)c2)cc1-c1ccnc(-c2ccnc(N)c2)c1 [Example 56]
– | – | 0.1 to 0.5 | 0.1 to 0.5 | 1 to 10 | ≤ 0.1 | CNC(=O)c1cc(-c2cc(-c3cc(C(=O)Nc4ccnc(C(C)(C)C#N)c4)ccc3C)ccn2)ccn1 [Example 74]
1 to 10 | 1 to 10 | 1 to 10 | 1 to 10 | – | – | CNC(=O)c1cc(-c2cncc(-c3cc(NC(=O)Cn4cc(C(C)C)nn4)ccc3C)c2)ncn1 [Example 383]
1 to 10 | 0.1 to 0.5 | 1 to 10 | 1 to 10 | – | – | Cc1ccc(NC(=O)c2ccnc(C(C)(C)F)c2)cc1-c1cc(-c2ccnc3[nH]ncc23)cnn1 [Example 400]
1 to 10 | ≤ 0.1 | 0.1 to 0.5 | 0.1 to 0.5 | – | – | COC(=O)Nc1cc(-c2ccnc(-c3cc(NC(=O)c4ccnc(C(C)(C)F)c4)ccc3C)n2)ccn1 [Example 403]
1 to 10 | ≤ 0.1 | ≤ 0.1 | 0.5 to 1 | – | – | COC(=O)Nc1cc(-c2nccc(-c3cc(NC(=O)c4ccnc(C(C)(C)F)c4)ccc3C)n2)ccn1 [Example 391]

IC50 [1, 3] [µM] | IC50 [2, 4] [µM] | IC50 (A375 cells) [µM] | IC50 (H2405 cells) [µM] | IC50 [1, 5] [µM] | IC50 [2, 6] [µM] | Compound
1 to 10 | ≤ 0.1 | ≤ 0.1 | ≤ 0.1 | – | – | Cc1cc(F)c(NC(=O)c2ccnc(C3CC3)c2)cc1-c1cncc(-c2cc(NC(=O)C3CC3)ncn2)c1 [Example 398]
– | – | 1 to 10 | 0.5 to 1 | 1 to 10 | ≤ 0.1 | CNC(=O)c1cc(-c2cc(-c3cc(NC(=O)c4ccnc(C(F)(F)F)c4)cnc3C)ccn2)ccn1 [Example 42]
1 to 10 | ≤ 0.1 | 0.1 to 0.5 | 0.1 to 0.5 | – | – | COC(=O)Nc1cc(-c2cnnc(-c3cc(NC(=O)c4ccnc(C(C)(C)F)c4)ccc3C)c2)ccn1 [Example 375]
1 to 10 | ≤ 0.1 | ≤ 0.1 | 0.1 to 0.5 | – | – | COC(=O)Nc1cc(-c2cncc(-c3cc(NC(=O)c4ccnc(C(C)(C)F)c4)c(F)cc3C)c2)ccn1 [Example 384]
0.5 to 1 | ≤ 0.1 | ≤ 0.1 | ≤ 0.1 | – | – | Cc1cc(F)c(NC(=O)c2ccnc(C(C)(C)F)c2)cc1-c1cncc(-c2ccnc(NC(=O)C3CC3)c2)c1 [Example 399]
– | – | 0.5 to 1 | 0.1 to 0.5 | 1 to 10 | ≤ 0.1 | CNC(=O)c1cc(-c2cc(-c3cc(NC(=O)c4ccnc(C(F)F)c4)ccc3C)ccn2)ccn1 [Example 48]
1 to 10 | ≤ 0.1 | 1 to 10 | 1 to 10 | – | – | Cc1ncc(NC(=O)c2ccnc(C(C)(C)C#N)c2)cc1-c1cccc(-c2ncnn3cccc23)c1 [Example 385]
1 to 10 | 0.1 to 0.5 | 1 to 10 | 1 to 10 | – | – | CNC(=O)c1cc(-c2cncc(-c3cc(NC(=O)c4cnn(CC(F)(F)F)c4)ccc3C)c2)ncn1 [Example 382]
– | – | 0.1 to 0.5 | ≤ 0.1 | 1 to 10 | ≤ 0.1 | CNC(=O)c1cc(-c2cc(-c3cc(NC(=O)c4cccc(C(F)(F)F)c4)cnc3C)ccn2)ccn1 [Example 52]
– | – | 0.5 to 1 | 0.5 to 1 | 1 to 10 | ≤ 0.1 | Cc1ccc(NC(=O)c2ccnc(C(C)(C)C#N)c2)cc1-c1ccnc(-c2ccnc(N)c2)n1 [Example 82]
– | – | ≤ 0.1 | ≤ 0.1 | 1 to 10 | ≤ 0.1 | Cc1ccc(NC(=O)c2ccnc(C(F)(F)F)c2)cc1-c1cccc(-c2cc(NC(=O)C3CC3)ncn2)c1 [Example 80]
0.1 to 0.5 | ≤ 0.1 | ≤ 0.1 | ≤ 0.1 | – | – | Cc1ccc(NC(=O)c2ccnc(C3CC3)c2)cc1-c1cncc(-c2cc(NC(=O)C3CC3)ncn2)c1 [Example 396]
– | – | 0.1 to 0.5 | 0.1 to 0.5 | 1 to 10 | ≤ 0.1 | CCOc1ncc(-c2cc(NC(=O)c3ccnc(C(F)(F)F)c3)ccc2C)cc1-c1ccnc(C(=O)NC)c1 [Example 69]
1 to 10 | 1 to 10 | 1 to 10 | 1 to 10 | – | – | CNC(=O)c1cc(-c2ccnc(-c3cc(NC(=O)CCC4(F)CC4)ccc3C)c2)ccn1 [Example 392]
– | – | 0.1 to 0.5 | 0.1 to 0.5 | 1 to 10 | ≤ 0.1 | CCOc1ncc(-c2cc(NC(=O)c3ccnc(C(F)(F)F)c3)ccc2C)cc1-c1ccnc(NC(=O)C2CC2)c1 [Example 71]
– | – | ≤ 0.1 | ≤ 0.1 | 1 to 10 | ≤ 0.1 | CNC(=O)c1cc(-c2cc(-c3cc(NC(=O)c4ccnc(C(C)(C)C#N)c4)ccc3C)ccn2)ccn1 [Example 50]
